Experimental data taken from patent US20190231730A1, “TREATMENT OF A DISEASE MEDIATED BY ARACHIDONIC ACID OR AN EICOSANOID” (priority 2016, published 2019).

Columns and labels:
[1] = tested on: patient with psoriasis; assay: Topical formulation in patients with psoriasis; conditions: approximately 30 patients
Experimental: (§1) The formulation was applied under arm pits (topically) to patients suffering from Cystic Fibrosis, psoriasis, ulcerative colitis and Ankylosing Spondylitis. Six patients suffering from Cystic fibrosis were administered this formulation once monthly.

[2] = tested on: patients suffering from Cystic Fibrosis; conditions: six patients; topical under arm pits, once monthly; 0.01-1 microgram in DMSO
Experimental: as §1

[3] = tested on: patients with ulcerative colitis; conditions: one patient
[4] = tested on: patients with Ankylosing Spondylitis; conditions: three patients
[5] = tested on: oesophageal adenocarcinoma; conditions: rat model; LTA4 hydrolase inhibitor, inhibition of LTB4 synthesis; cited from earlier work

Structure (SMILES) | duration of symptom-free state in psoriasis [1] | healing of psoriatic lesions on skin [1] | clinical benefit and symptoms in Cystic Fibrosis [2] | decrease in all ulcerative mediations [3] [%] | reversal of symptomatology in ulcerative colitis [3] [%] | symptoms of Ankylosing Spondylitis [4] | burden of oesophageal adenocarcinoma [5]
CCCCC/C=C\C/C=C\C/C=C\CC#CCCCC(=O)O [5,6-dehydro arachidonic acid] | remained symptom free for years | completely healed their psoriatic lesions | significant clinical benefit and reduction of symptoms | 100 | 100 | helped them with the symptoms | –
CC(C)C[C@H](NC(=O)[C@@H](O)[C@H](N)Cc1ccccc1)C(=O)O [bestatin] | – | – | – | – | – | – | reduced the burden of oesophageal adenocarcinoma
